According to patent publication US20230167058A1, “GPX4 COMPOUNDS AND COMPOSITIONS AND METHODS OF TREATMENT USING SAME” (THE TRUSTEES OF COLUMBIA UNIVERSITY IN THE CITY OF NEW YORK, priority 2020, published 2023):

Legend:
[1] = target: T1, cellular GPX4 in HT1080 cell lysate (Homo sapiens, UniProt P36969); test: NADPH-coupled cellular GPX4-specific activity, HT1080 cell lysate; type: biochemical; conditions: 500 μM LOC1886 added to lysate
T1 construct: endogenous in cells; host or cells: HT-1080 (ATCC), whole-cell lysate
T1 sequence (P36969 1-197): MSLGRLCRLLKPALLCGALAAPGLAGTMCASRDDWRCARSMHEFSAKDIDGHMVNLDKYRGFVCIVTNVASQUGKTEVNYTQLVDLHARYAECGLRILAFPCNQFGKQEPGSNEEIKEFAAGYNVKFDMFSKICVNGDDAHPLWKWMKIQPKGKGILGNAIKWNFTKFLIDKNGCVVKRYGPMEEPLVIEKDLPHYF
Experimental: We applied a NADPH-coupled cellular GPX4 enzymatic activity assay as previously reported with minor modifications (Roveri et al. 1994). Oxidized glutathione, generated by GPX4 during reducing its specific phospholipid hydroperoxides substrate, was reduced by Glutathione Reductase at the expense of NADPH, the decrease in the characteristic absorbance of which at 340 nm was monitored and quantified as GPX4 activity. […] The concentration of protein in the lysate was determined using BCA assay kit using BSA as standards. […] Absorbance of NADPH at 340 nm was determined kinetically at 1 min interval over the 20 min time. […] Results were quantified using GraphPad Prism 9.
We applied a NADPH-coupled cellular GPX4 enzymatic activity assay as previously reported (Roveri et al. 1994). Oxidized glutathione, generated by GPX4 during reducing its specific phospholipid hydroperoxides substrate, was reduced by Glutathione Reductase at the expense of NADPH, the decrease in the characteristic absorbance of which at 340 nm was monitored and quantified as GPX4 activity. […] The concentration of protein in the lysate was determined using BCA assay kit using BSA as standards. […]

GPX4^allCys(−) A46C = target: T2, GPX4^allCys(−) A46C (Homo sapiens, UniProt P36969, C102S/C134A/C175A/C37A/C64S/C93A/U73C); test: Intact protein MALDI MS analysis, GPX4^allCys(−) A46C; type: binding; conditions: only cys46 present
T2 construct: His (cleaved yes); made in house; host or cells: E. coli BL21-Gold (DE3)
T2 sequence (P36969 33-197 C37A/C64S/U73C/C93A/C102S/C134A/C175A): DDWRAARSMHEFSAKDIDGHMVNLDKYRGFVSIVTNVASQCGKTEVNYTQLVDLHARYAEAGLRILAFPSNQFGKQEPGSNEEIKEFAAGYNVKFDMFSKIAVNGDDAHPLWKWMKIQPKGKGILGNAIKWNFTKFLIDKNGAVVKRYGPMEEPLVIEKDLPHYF
Experimental: GPX4^U46C or GPX4^AllCys(−)-A46C protein was pre-incubated with DMSO control or the inhibitor to be tested prior to MALDI MS analysis: 50 μM GPX4 protein was incubated with 500 μM inhibitors in FPLC buffer (100 mM Tris pH 8.0, 300 mM NaCl, and 3 mM TCEP) with 5% DMSO at RT for 1 hour before transferring to 4° C. overnight.
1 μl of the ligand-free protein (pre-incubated with DMSO) or protein-inhibitor complex (pre-incubated with the inhibitor to be tested) was mixed with 9 μl of 10 mg/ml sinapinic acid in the matrix solution (70:30 water/acetonitrile, with 0.1% TFA). 1.0 μl of the final mix was deposited onto the target carrier and allowed to air dry. MALDI spectrum was recorded using Bruker ultrafleXtreme MALDI-TOF instrument. The range of m/z detection and suppression was adjusted to accommodate the molecular weight of target protein. 2000 Hz and 50% intensity was applied for the laser setting. For each sample, five cumulative spectra were collected and the sum was recorded for analysis. All MALDI spectra of protein-inhibitor complex were compared with ligand-free protein to determine the mass shift. Mass shifts were aligned with the mass of potential staying group of each inhibitor to conclude covalent binding.

Structure (SMILES) | capability of cellular GPX4 to reduce phospholipid hydroperoxides [1] | covalent modification of cys46 (mass shift) by MALDI MS (GPX4^allCys(−) A46C)
COc1cccc2[nH]c(C(=O)n3ccnc3)cc12 [LOC1886] | inhibited the capability of cellular GPX4 | –
COC(=O)c1ccc([C@@H]2c3[nH]c4ccccc4c3C[C@@H](C(=O)OC)N2C(=O)CCl)cc1 [RSL3, (1S, 3R)-RSL3] | – | no mass shift
